From publication PMC5392761, “Discovery of Antimalarial Azetidine-2-carbonitriles That Inhibit P. falciparum Dihydroorotate Dehydrogenase” (ACS Medicinal Chemistry Letters, 2017)

Test: Mouse pharmacokinetics assay (IV and PO)
Type: in vivo, CD-1 mice
Settings: mice

## CCCNC(=O)N1[C@H](C#N)[C@H](c2ccc(-c3ccc(C(F)(F)F)c(C(F)(F)F)c3)cc2)[C@H]1CO [Compound 27]
female, CD-1, mouse, in vivo, PO 5 mg/kg, IV 1 mg/kg, read-out: F, bioavailability
  bioavailability: 94%
IV 1 mg/kg
  C0, initial serum concentration at t = 0: 4.9 µM
  Vss, volume of distribution at steady state: 0.37 L/kg
PO 5 mg/kg, read-out: Cmax, peak serum concentration
  Cmax: 16.9 µM
Following PO dosing 5 mg/kg
  DNAUC0-inf, dose-normalized area under the plasma concentration vs time curve: >54.3 µM·h
